Legend:
Experiment in all cases: KiNativ profiling in H3255 cells
Assay type in all cases: cell-based, human
MAP2K4 = test system: T1, MAP2K4; details: 2.5 µM
T1 construct: purchased ActivX Biosciences (KiNativ)
Procedure, shortened: (§1)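 Compound ZNL-0056, 2.5 μM, 2 h, in H3255 cells near 80% confluency; DMSO-treated cells served as reference. KiNativ performed externally on liquid-nitrogen-frozen pellets.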

CK1a = test system: T2, CK1a; details: 2.5 µM; Lys2; DIKPDNFLMGIGR
T2 construct: purchased ActivX Biosciences (KiNativ)
Procedure, shortened: as §1

MAP3K15, MAP3K5, MAP3K6 = details: 2.5 µM; Lys1; IAIKEIPER
Procedure, shortened: as §1

[1] = test system: RSK1 domain1, RSK2 domain1, RSK3 domain1; details: 2.5 µM; Lys2; DLKPENILLDEEGHIK
Procedure, shortened: as §1

p38a = test system: T3, p38a; details: 2.5 µM
T3 construct: purchased ActivX Biosciences (KiNativ)
Procedure, shortened: as §1

CLK3 = test system: T4, CLK3; details: 2.5 µM
T4 construct: purchased ActivX Biosciences (KiNativ)
Procedure, shortened: as §1

FER = test system: T5, FER; details: 2.5 µM
T5 construct: purchased ActivX Biosciences (KiNativ)
Procedure, shortened: as §1

EphA1 = test system: T6, EphA1; details: 2.5 µM; Activation Loop; LLDDFDGTYETQGGKIPIR
T6 construct: purchased ActivX Biosciences (KiNativ)
Procedure, shortened: as §1

BRAF, BRAF V600E = test system: T7, BRAF, BRAF V600E; details: 2.5 µM; Lys2; DLKSNNIFLHEDLTVK
T7 construct: purchased ActivX Biosciences (KiNativ)
Procedure, shortened: as §1

MST2 = test system: T8, MST2; details: 2.5 µM; Lys1; ESGQVVAIKQVPVESDLQEIIK
T8 construct: purchased ActivX Biosciences (KiNativ)
Procedure, shortened: as §1

MLKL = test system: T9, MLKL; details: 2.5 µM; Lys1; APVAIKVFK
T9 construct: purchased ActivX Biosciences (KiNativ)
Procedure, shortened: as §1

ROCK1 = test system: T10, ROCK1; details: 2.5 µM; Other; KLQLELNQER
T10 construct: purchased ActivX Biosciences (KiNativ)
Procedure, shortened: as §1

MAP3K2, MAP3K3 = details: 2.5 µM; Lys2; DIKGANILR
Procedure, shortened: as §1

NEK4 = test system: T11, NEK4; details: 2.5 µM; Lys2; DLKTQNVFLTR
T11 construct: purchased ActivX Biosciences (KiNativ)
Procedure, shortened: as §1

ZC2/TNIK = test system: T12, ZC2/TNIK; details: 2.5 µM; Lys1; TGQLAAIKVMDVTGDEEEEIKQEINMLKK
T12 construct: purchased ActivX Biosciences (KiNativ)
Procedure, shortened: as §1

LOK = test system: T13, LOK; details: 2.5 µM; Lys2; DLKAGNVLMTLEGDIR
T13 construct: purchased ActivX Biosciences (KiNativ)
Procedure, shortened: as §1

TAK1 = test system: T14, TAK1; details: 2.5 µM; Lys2; DLKPPNLLLVAGGTVLK
T14 construct: purchased ActivX Biosciences (KiNativ)
Procedure, shortened: as §1

RSK2 domain2 = test system: T15, RSK2 domain2; details: 2.5 µM; Lys2; DLKPSNILYVDESGNPESIR
T15 construct: RSK2 domain2; purchased ActivX Biosciences (KiNativ)
Procedure, shortened: as §1

ZAK = test system: T16, ZAK; details: 2.5 µM; Lys1; WISQDKEVAVKK
T16 construct: purchased ActivX Biosciences (KiNativ)
Procedure, shortened: as §1

ABL, ARG = details: 2.5 µM
Procedure, shortened: as §1

FAM20B = test system: T17, FAM20B; details: 2.5 µM; ATP; ETEPACADGDIMEGSVTLWLPDVWPLQKHR
T17 construct: purchased ActivX Biosciences (KiNativ)
Procedure, shortened: as §1

RIPK2 = test system: T18, RIPK2; details: 2.5 µM; Lys1; VQVAVKHLHIHTPLLDSER
T18 construct: purchased ActivX Biosciences (KiNativ)
Procedure, shortened: as §1

TBK1 = test system: T19, TBK1; details: 2.5 µM; Lys1; TGDLFAIKVFNNISFLRPVDVQMR
T19 construct: purchased ActivX Biosciences (KiNativ)
Procedure, shortened: as §1

CK1g1 = test system: T20, CK1g1; details: 2.5 µM; Lys2; DVKPENFLIGR
T20 construct: purchased ActivX Biosciences (KiNativ)
Procedure, shortened: as §1

p70S6Kb = test system: T21, p70S6Kb; details: 2.5 µM; Lys2; DLKPENIMLSSQGHIK
T21 construct: purchased ActivX Biosciences (KiNativ)
Procedure, shortened: as §1

CLK2 = test system: T22, CLK2; details: 2.5 µM; Lys2; LTHTDLKPENILFVNSDYELTYNLEK
T22 construct: purchased ActivX Biosciences (KiNativ)
Procedure, shortened: as §1

BRAF, RAF1 = details: 2.5 µM; Activation Loop; IGDFGLATVKSR
Procedure, shortened: as §1

MST3 = test system: T23, MST3; details: 2.5 µM; Lys2; DIKAANVLLSEHGEVK
T23 construct: purchased ActivX Biosciences (KiNativ)
Procedure, shortened: as §1

CHK1 = test system: T24, CHK1; details: 2.5 µM; Lys2; DIKPENLLLDER
T24 construct: purchased ActivX Biosciences (KiNativ)
Procedure, shortened: as §1

SRPK2 = test system: T25, SRPK2; details: 2.5 µM; Lys2; IIHTDIKPENILMCVDDAYVR
T25 construct: purchased ActivX Biosciences (KiNativ)
Procedure, shortened: as §1

CaMK1d = test system: T26, CaMK1d; details: 2.5 µM
T26 construct: purchased ActivX Biosciences (KiNativ)
Procedure, shortened: as §1

MAP3K1 = test system: T27, MAP3K1; details: 2.5 µM; Lys2; DVKGANLLIDSTGQR
T27 construct: purchased ActivX Biosciences (KiNativ)
Procedure, shortened: as §1

[2] = ATP Loop, YEIVGNLGEGTFGKVVECLDHAR
[3] = Lys2, FLHENQLTHTDLKPENILFVNSEFETLYNEHK
[4] = Activation Loop, QEDGGVYSSSGLKQIPIK
[5] = Activation Loop, LMTGDTYTAHAGAKFPIK

Structure (SMILES) | Inhibition (MAP2K4; Lys1, MVHKPSGQIMAVKR) | Inhibition (MAP2K4; Lys2, DIKPSNILLDR) | Inhibition (CK1a) | Inhibition (MAP3K15, MAP3K5, MAP3K6) | Inhibition [1] | Inhibition (p38a; Lys2, DLKPSNLAVNEDCELK) | Inhibition (p38a; Other, QELNKTIWEVPER) | Inhibition (CLK3; [2]) | Inhibition (CLK3; [3]) | Inhibition (FER; [4]) | Inhibition (FER; Lys1, TSVAVKTCKEDLPQELK) | Inhibition (EphA1) | Inhibition (BRAF, BRAF V600E) | Inhibition (MST2) | Inhibition (MLKL) | Inhibition (ROCK1) | Inhibition (MAP3K2, MAP3K3) | Inhibition (NEK4) | Inhibition (ZC2/TNIK) | Inhibition (LOK) | also measured
C=CC(=O)Nc1cc(Nc2nccc(-c3cn(C)c4ccccc34)n2)c(OC)cc1N(C)CCN(C)C [Osimertinib, osimertinib, reference compound] | 12.0% | 30.7% | 12.6% | -10.0% | -33.3% | 19.9% | 12.6% | -8.7% | -18.4% | 28.7% | -15.4% | 5.8% | -9.2% | -13.5% | -10.0% | -7.6% | -6.6% | -12.6% | 19.5% | -8.3% | Inhibition (TAK1): -9.8%; Inhibition (RSK2 domain2): -16.8%; Inhibition (ZAK): -16.3%; Inhibition (ABL, ARG; [5]): 8.4%; Inhibition (ABL, ARG; Lys1, YSLTVAVKTLKEDTMEVEEFLK): 4.3%; Inhibition (FAM20B): 20.1%; Inhibition (RIPK2): 51.7%; Inhibition (TBK1): -18.1%; Inhibition (CK1g1): 7.6%; Inhibition (p70S6Kb): -28.8%; Inhibition (CLK2): 26.6%; Inhibition (BRAF, RAF1): -21.1%; Inhibition (MST3): -15.5%; Inhibition (CHK1): 15.0%; Inhibition (SRPK2): -2.3%; Inhibition (CaMK1d; Lys1, LFAVKCIPK): -14.3%; Inhibition (CaMK1d; Lys2, DLKPENLLYYSQDEESK): -8.2%; Inhibition (MAP3K1): 8.4%
C=CC(=O)Nc1cc(C(=O)Nc2nc3cccc(C)c3n2[C@@H]2CCCCN(C(=O)C=C)C2)cs1 [ZNL-0056] | 5.7% | 2.6% | 10.2% | -7.9% | -1.0% | -10.4% | -5.0% | 10.0% | 13.8% | -11.1% | -6.4% | -5.3% | 4.5% | -6.8% | 4.5% | -20.4% | -6.0% | 7.6% | 32.8% | -15.4% | Inhibition (TAK1): 10.2%; Inhibition (RSK2 domain2): 4.0%; Inhibition (ZAK): 12.1%; Inhibition (ABL, ARG; [5]): -3.8%; Inhibition (ABL, ARG; Lys1, YSLTVAVKTLKEDTMEVEEFLK): 17.1%; Inhibition (FAM20B): -17.9%; Inhibition (RIPK2): -9.6%; Inhibition (TBK1): 5.3%; Inhibition (CK1g1): 16.6%; Inhibition (p70S6Kb): -8.5%; Inhibition (CLK2): 9.5%; Inhibition (BRAF, RAF1): -19.4%; Inhibition (MST3): -1.1%; Inhibition (CHK1): -8.1%; Inhibition (SRPK2): 10.0%; Inhibition (CaMK1d; Lys1, LFAVKCIPK): 11.3%; Inhibition (CaMK1d; Lys2, DLKPENLLYYSQDEESK): 2.0%; Inhibition (MAP3K1): -17.1%

— publication PMC11212140, “Molecular Bidents with Two Electrophilic Warheads as a New Pharmacological Modality” (ACS Central Science, 2024)
